In EP0378320A2, “Microbial transformation product” (Merck & Co., Inc., priority 1989, dated 1990) one finds inhibition data, which are given here for one compound.

This assay relates to mouse T lymphocytes. As to the kind of experiment: T-cell proliferation assay (ionomycin plus PMA induced T-cell stimulation, tritiated thymidine uptake). As to conditions: T-lymphocyte, standard at 10 ng/ml. The format is cell-based. On the procedure:
The principle of this assay is to measure the proliferation of mouse T lymphocytes stimulated with the combination of ionomycin plus PMA. A positive sample in this assay will inhibit T-cell proliferation, as indicated by reduced tritiated thymidine uptake.
Purified L-683,756, as prepared by HPLC above, was dissolved in absolute ethanol at 1 mg/ml.
Spleens from C57B1/6 mice were taken under sterile conditions and gently dissociated in ice-cold RPMI 1640 culture medium (GIBCO, Grand Island, N.Y.) supplemented with 10% heat-inactivated fetal calf serum (GIBCO). Cells were pelleted by centrifugation at 1500 rpm for 8 minutes. […]
Purified T lymphocytes were resuspended at 2.5 x 10⁵ cells/ml in complete culture medium composed of RPMI 1640 medium with 10% heat-inactivated fetal calf serum, […] glutamine, 1 mM sodium pyruvate, 2 x 10⁻⁵ M 2-mercaptoethanol and 50 µg/ml gentamycin. […] The proliferation of T lymphocytes was assessed by measurement of tritiated thymidine incorporation. […] Radioactivity of filter discs corresponding to individual wells was measured by standard liquid scintillation counting methods (Betacounter). Mean counts per minute of replicate wells were calculated and the results expressed as percent inhibition of tritiated thymidine uptake (proliferation) as follows: [formula]

As usually defined, the inhibition is the percentage by which the read-out fell short of the control. For `CC[C@@H]1/C=C(\C)C[C@H](C)C[C@H](OC)[C@H]2O[C@@](O)(C(=O)C(=O)N3CCCC[C@H]3C(=O)O[C@H](/C(C)=C/[C@@H]3CC[C@@H](O)[C@H](OC)C3)[C@H](C)[C@@H](O)CC1=O)[C@H](C)C[C@@H]2OC` [L-683,590], the inhibition at 0.01 µg/mL is 99%.
